Reference: US20070265194A1, “Agents for the treatment of viral infections” (priority 2000, published 2007)
Peptide text beside a SMILES is read from it. * marks the point of attachment. Cbz = O=C(OCc1ccccc1)*

Experiments:
DHBV = experiment: Primary and secondary DHBV infection in primary duck hepatocytes, core immunofluorescence; assay type: cell-based, duck hepatitis B virus
HIV-1 protease = HIV-1 protease (Human immunodeficiency virus type 1 group M subtype B, UniProt P04585); experiment: In vitro Gag processing of recombinant Pr55 by recombinant HIV-1 protease, Western blot; assay type: biochemical; settings: for inhibition of protease activity: 10-fold higher concentration than in the cell culture, 30 min reaction, FIG. 3 reactions 4-9; for inhibitory action on Gag processing by HIV-1 protease: inhibitor concentration of up to 100 microM, enzyme-to-substrate ratio 1:25
From the text: Therefore, a possible influence of proteasome inhibitors on the enzymic activity of the HIV-1 protease is investigated within the framework of the invention by studying the in vitro processing of Gag polyprotein (for this, see exemplary embodiment 4). For this purpose, according to the invention, recombinant Pr55 is expressed in insect cells and purified from released virus-like particles. Enzymatically active HIV-1 protease is expressed in E. coli and chromatographically purified. The specific activity of the protease is determined by means of titration of the active sites. Pr55 and protease are set to an enzyme-to-substrate ratio of 1:25 and incubated for a defined time under conditions under which only approx. 50% of the substrate Pr55 is proteolytically processed. These reaction conditions allow sensitive detection of small effects on the enzymic activity of the protease.
Recombinant HIV-1 Gag polyprotein Pr55 was prepared in insect cells and recombinant HIV-1 protease was prepared in E. coli. The experimental details of expression, purification and determination of the enzymic activity as well as carrying out the in vitro cleavage reactions and Western blots are illustrated in more detail in Example 6f. The enzyme-to-substrate ratios (protease-Pr55 ratio) were chosen in such a way that substrate conversion was relatively slow. After 30 min of reaction, approx. 50% of Pr55 had been cleaved. Under these conditions it is possible to determine even weakly inhibitory effects on the enzymic activity of the protease.
Myristylated Pr55 of HIV-1 was produced from virus-like particles which were released from insect cells infected with recombinant baculovirus Gag12myr. The virus-like particles were purified by centrifugation through a 20% sucrose layer. Recombinant HIV-1 protease expressed in E. coli was purified by means of gel filtration chromatography on Superose 12. The enzyme concentration was determined by means of active-site titration. For cleavage reactions, usually 1 μM Pr55 was incubated with 40 nM (nanomol) PR in reaction buffer (50 mM MES pH 6.5, 300 mM NaCl, 2 mM DTT, 1 mM EDTA, 0.1% Triton-X 100) at 37° C. for 30 min. In order to ensure maximum saturation of PR with inhibitors, PR was preincubated with the particular inhibitor for 5 min, prior to the start of the cleavage reactions. The cleavage reactions were stopped by adding SDS sample buffer and boiling the sample for 10 min. The cleavage products were fractionated in 10% SDS-PAGE and then detected by means of Western blot. For this purpose, anti-CA-specific antibodies were used which were detected by means of anti-rabbit IgG-peroxidase conjugate and chemiluminescence reaction.
Recombinant Pr55 was isolated from virus-like particles which had been produced by insect cells infected with recombinant bacculovirus. Recombinant HIV-1 protease was expressed in E. coli, purified, and the specific activity was determined by active-site titration. The quantities of Pr55 and protease were mixed with an enzyme-to-substrate ratio of 1:25 and incubated at 37° C. for 30 min. The reaction was stopped by adding SDS sample buffer. The cleavage reactions were then studied by Western blot analysis with CA-specific antiserum. Pr55, CA and intermediate processing product MA-Ca were made visible, after antibody binding, by means of a chemiluminescence reaction. […]

mouse thymus cell lines = settings: cited from earlier work
HIV-1NL4-3 [1] = experiment: Virus release from HIV-1-infected A3.01 T cells, p24 CA capture ELISA; assay type: cell-based
Protocol: Cultures of human CD4^+ T cells, A3.01 were infected with HIV-1NL4-3 and cultured in RPMI for approx. 7 days. Approx. 80% of the cell culture medium was replaced every other day. The amount of released virus particles was determined by testing samples of the cell culture supernatants for activity of virus-associated RT. Furthermore, the spread of the infection was monitored by indirect immunofluorescence with anti-CA antibodies. The time of maximum spread of the infection in the culture was determined on the basis of RT accumulation and of syncytia formation. At the time of maximum virus production (approx. 7 days after infection), fresh noninfected A3.01 cells were mixed with the infected culture in a 1:1 ratio and incubated for another 24 h. This makes it possible to quasi-synchronize the infection and to maximize the number of infected cells with maximum HIV expression at a given time. The cells were divided into parallel cultures, washed with PBS and treated with 40 microM zLLL in medium for 4.5 hours. […] The virus-containing cell culture supernatants were collected, filtered, and the amount of Gag proteins was quantified by means of a standardized capture ELISA using anti-CA antibodies with different epitopes. […] The infectivity of the culture supernatants was determined by means of end point titration (detailed in example 6d) and is indicated as TCID50 in Table 1. The specific infectivity was determined by dividing TCID50 by the total amount of Gag and is listed in Table 1 as percentage infectivity of the control culture (no zLLL=100%). […]
CD4^+ T cells (A3.01) were infected with HIV-1NL4-3, at the time of maximum virus production (approx. 7 days post infection), parallel cultures were treated either without or with 40 μM zLLL for 1 (+zLLL “−1 hr”) or 6 hours (+zLLL “−6 hr”). […] The virus-containing supernatants were collected, and the amount of CA antigen was quantified by means of ELISA. The specific infectivity was determined as the infectious virus titer per nanog of CA and depicted relative to the untreated control culture (100%). […]

HIV-1NL4-3 [2] = experiment: Infectivity of released virions, end point titration (TCID50) on C8166 cells; assay type: cell-based; settings: for Infectivity Titer/ng p24^CA / Virus titer/ml TCID50 / Infectivity % of “no zLLL”: 40 μM zLLL; for Infectivity % of “no zLLL”: control = 100; for reduction of infectious virions in the cell culture medium: 40 microM zLLL
Protocol: Cultures of human CD4^+ T cells, A3.01 were infected with HIV-1NL4-3 and cultured in RPMI for approx. 7 days. Approx. 80% of the cell culture medium was replaced every other day. The amount of released virus particles was determined by testing samples of the cell culture supernatants for activity of virus-associated RT. Furthermore, the spread of the infection was monitored by indirect immunofluorescence with anti-CA antibodies. The time of maximum spread of the infection in the culture was determined on the basis of RT accumulation and of syncytia formation. At the time of maximum virus production (approx. 7 days after infection), fresh noninfected A3.01 cells were mixed with the infected culture in a 1:1 ratio and incubated for another 24 h. This makes it possible to quasi-synchronize the infection and to maximize the number of infected cells with maximum HIV expression at a given time. The cells were divided into parallel cultures, washed with PBS and treated with 40 microM zLLL in medium for 4.5 hours. Washing of the cells and culturing in fresh medium was necessary in order to monitor the newly produced viruses during the harvest period of 4.5 hours (+zLLL “0 hr”). It was assumed that there is a certain lag phase of approx. 1 hour, corresponding to HIV-1 assembly, between the start of the treatment with proteasome inhibitors and the release of defective virions. In order to monitor the virus production of cells with inactivated proteasomes at the start of the harvest period, parallel cultures were pretreated with 40 microm zLLL prior to the washing step for one (+zLLL “−1 hr”) or 6 hours (+zLLL “−6 hr”). A parallel culture was incubated without inhibitor (no zLLL). The virus-containing cell culture supernatants were collected, filtered, and the amount of Gag proteins was quantified by means of a standardized capture ELISA using anti-CA antibodies with different epitopes. […] The infectivity of the culture supernatants was determined by means of end point titration (detailed in example 6d) and is indicated as TCID50 in Table 1. The specific infectivity was determined by dividing TCID50 by the total amount of Gag and is listed in Table 1 as percentage infectivity of the control culture (no zLLL=100%). Both the release of Gag proteins and the infectivity of the released virions are shown to be inhibited after zLLL treatment. This effect increases with time, and infectious virions in the cell culture medium are reduced by 84% after 4.5 hours and by 98% after another 6 hours of pretreatment (Table 1).
CD4^+ T cells (A3.01) were infected with HIV-1NL4-3, at the time of maximum virus production (approx. 7 days post infection), parallel cultures were treated either without or with 40 μM zLLL for 1 (+zLLL “−1 hr”) or 6 hours (+zLLL “−6 hr”). This was followed by washing the cells and another 4.5 hours of incubating with or without 40 μM zLLL. In a parallel culture, cells were treated with 40 μM zLLL immediately after washing (+zLLL “0 hr”). The virus-containing supernatants were collected, and the amount of CA antigen was quantified by means of ELISA. The specific infectivity was determined as the infectious virus titer per nanog of CA and depicted relative to the untreated control culture (100%).
Acute HIV-1NL4-3-infected A3.01 cells were treated with 40 microM zLLL for various times, as indicated in exemplary embodiment 1. Cell-free cell culture supernatant was harvested and filtered (pore size=0.45 microm). The relative quantity of released virions was quantified by means of a p24^CA-antigen capture ELISA. For the purpose of virus titration, in each case 8 parallel cultures of C8166 cells were infected with the particular viral preparations, in a serial 10-fold dilution. The infectivity titer was determined as 50% cell culture infectious dose (TCID50), namely by determining syncytia formation for each culture and dilution step on day 10 post infection. […]

HIV-1NL4-3 [3] = assay type: cell-based
HIV-1NL4-3 [4] = experiment: HIV-1 replication in A3.01 cell culture, RT activity in supernatant; assay type: cell-based; settings: for productive infection in the culture (RT accumulation): 5 microM, approx. 2 weeks
20S proteasome = 20S proteasome (Homo sapiens, UniProt P28074); settings: in vitro; cited from earlier work

CC[C@H](C)[C@H](NC(=O)[C@H]([C@@H](C)CC)N(C)C(C)=O)C(=O)N[C@H](C(=O)N[C@@H](CC(C)C)C(=O)[C@@]1(C)CO1)[C@@H](C)O [epoxomicin]
concentration from which toxic symptoms appeared (HepG2; human, 48 h): ≥ 100 nM

Cc1ccc(C(=O)Nc2ccc(S(=O)(=O)O)c3cc(S(=O)(=O)O)cc(S(=O)(=O)O)c23)cc1NC(=O)c1cccc(NC(=O)Nc2cccc(C(=O)Nc3cc(C(=O)Nc4ccc(S(=O)(=O)O)c5cc(S(=O)(=O)O)cc(S(=O)(=O)O)c45)ccc3C)c2)c1 [suramin]
number of the core-expressing cells (DHBV; 100 microg/ml, from three days after infection for three days): very greatly reduced | establishment of the primary infection (DHBV; pretreatment 100 microg/ml, 2 h pre-infection): completely blocks

CC(=O)N[C@@H](CSC(=O)[C@]1([C@@H](O)C(C)C)NC(=O)[C@H](C)[C@@H]1O)C(=O)O [LC, lactacystin]
inhibition of protease activity (HIV-1 protease): not possible to detect any inhibition | inhibitory action on Gag processing by HIV-1 protease (HIV-1 protease): no inhibitory action whatsoever | concentration tolerated in cell culture (mouse thymus cell lines): up to 6 μM

CC(C)C[C@@H](C=O)NC(=O)[C@H](CC(C)C)NC(=O)[C@H](CC(C)C)NC(=O)OCc1ccccc1 [zLLL, N-carbobenzoxyl-L-leucinyl-L-leucinyl-L-leucinal] (Cbz-Leu-Leu-Leu-aldehyde)
Virus release ng p24^CA/ml (HIV-1NL4-3 [1]; 40 μM zLLL added immediately after washing (“0 hr”), 4.5 hours harvest, A3.01): 122 ng p24^CA/ml | Virus release ng p24^CA/ml (HIV-1NL4-3 [1]; 40 μM zLLL, 1 hour pretreatment (“−1 hr”) plus 4.5 hours harvest): 88 ng p24^CA/ml | Virus release ng p24^CA/ml (HIV-1NL4-3 [1]; 40 μM zLLL, 6 hours pretreatment (“−6 hr”) plus 4.5 hours harvest): 26 ng p24^CA/ml | Infectivity Titer/ng p24^CA (HIV-1NL4-3 [2]; “0 hr”, 4.5 hours harvest): 1.0 × 10^4 Titer/ng p24^CA | Virus titer/ml TCID50 (HIV-1NL4-3 [2]; “0 hr”, 4.5 hours harvest): 1.2 × 10^6 TCID50/ml | Infectivity % of “no zLLL” (HIV-1NL4-3 [2]; “0 hr”, 4.5 hours harvest): 14% | Infectivity Titer/ng p24^CA (HIV-1NL4-3 [2]; “−1 hr” plus 4.5 hours harvest): 5.0 × 10^3 Titer/ng p24^CA | Virus titer/ml TCID50 (HIV-1NL4-3 [2]; “−1 hr” plus 4.5 hours harvest): 4.4 × 10^5 TCID50/ml | Infectivity % of “no zLLL” (HIV-1NL4-3 [2]; “−1 hr” plus 4.5 hours harvest): 7% | Infectivity Titer/ng p24^CA (HIV-1NL4-3 [2]; “−6 hr” plus 4.5 hours harvest): 1.5 × 10^3 Titer/ng p24^CA | Virus titer/ml TCID50 (HIV-1NL4-3 [2]; “−6 hr” plus 4.5 hours harvest): 3.8 × 10^4 TCID50/ml | Infectivity % of “no zLLL” (HIV-1NL4-3 [2]; “−6 hr” plus 4.5 hours harvest): 2% | reduction of infectious virions in the cell culture medium (HIV-1NL4-3 [2]; after 4.5 hours): 84% | reduction of infectious virions in the cell culture medium (HIV-1NL4-3 [2]; after another 6 hours of pretreatment): 98% | kinetics of intracellular Gag processing and of the release of virus-associated and free Gag (HIV-1NL4-3 [3]): distinct delay | inhibition of protease activity (HIV-1 protease): not possible to detect any inhibition | inhibitory action on Gag processing by HIV-1 protease (HIV-1 protease): no inhibitory action whatsoever | effect on HIV-1 replication (HIV-1NL4-3 [4]; 1 microM): completely inhibits replication | productive infection in the culture (RT accumulation) (HIV-1NL4-3 [4]; FIG. 4 panel 1): no productive infection at all | productive infection in the culture (RT accumulation) (HIV-1NL4-3 [4]; FIG. 4 panel 2): only a very reduced productive infection | effect on HIV-1 replication (HIV-1NL4-3 [4]; 100 nanoM): relatively weak inhibitory effect

CC(C)(C)NC(=O)[C@@H]1C[C@@H]2CCCC[C@@H]2CN1C[C@@H](O)[C@H](Cc1ccccc1)NC(=O)[C@H](CC(N)=O)NC(=O)c1ccc2ccccc2n1 [saquinavir]
in vitro processing of Pr55 (HIV-1 protease; control, FIG. 3 reaction 10): complete blockage

CC(C)c1nc(CN(C)C(=O)N[C@H](C(=O)N[C@@H](Cc2ccccc2)C[C@H](O)[C@H](Cc2ccccc2)NC(=O)OCc2cncs2)C(C)C)cs1 [ritonavir]
inhibition of chymotrypsin activity of the 20S proteasome (20S proteasome): can inhibit

C=C(C)C[C@H](NC(=O)[C@H](CO)NC(=O)CCCCC(C)C)C(=O)[C@@]1(CO)CO1 [eponemycin]
number of core-positive cells compared to untreated cultures (DHBV; 1 μM, day 3 to day 6 after infection): much lower number of core-positive cells | tolerability in HepG2 (HepG2): still tolerated well
